Assay results taken from publication PMC11475408, “All‐Inorganic Polyoxometalates Act as Superchaotropic Membrane Carriers” (Advanced Materials (Deerfield Beach, Fla.), 2023).

Tested on: CHO‐K1 cells
Assay: FITC-Arg8 uptake in live cells, confocal imaging
Format: cell-based, Chinese hamster
Conditions: carrier 5 µM, 5 min, then FITC-Arg8 5 µM, 30 min, 37 °C, four biological replicates
Experimental: CHO‐K1 cells were plated into µ‐Slide 8‐well plates (ibidi) at a density of ≈1 × 10^5 cells per well (per 1 mL) and incubated for 24 h in Ham's F‐12 medium containing 10% v/v fetal bovine serum and 1.0% penicillin streptomycin at 37 °C in a 5% CO2 atmosphere. The cells were washed twice with Hank's buffer, incubated for 5 min at 37 °C in Ham's F‐12 medium without phenol red with carrier (5 µM), and subsequently in Ham's F‐12 medium without phenol red with 5 µM FITC‐Arg8 for 30 min at 37 °C. Cells in the absence of carrier were used as control. The cells were washed twice with Hank's buffer containing 100 µg mL^−1 heparin and then washed twice with Ham's F‐12 medium without phenol red. The nuclear staining was performed by incubating the cells with 10 µg mL^−1 Hoechst 33 342 (bis‐benzimide H33342 trihydrochloride) for 10 min at 37 °C. Cells were directly imaged as stated above.

Substance: Na3[α‐P^VW^VI 12O40]·nH2O [[PW12]^3‒]
- FITC-Arg8 uptake promoted by carrier: some apparent cellular uptake, but the cell morphology was highly compromised
- FITC-Arg8 uptake promoted by carrier (listed as [PW12]3‒): highly compromised
